# Data: US20230085307A1, “PYRIDAZINONE COMPOUND AND HERBICIDE” (NISSAN CHEMICAL CORPORATION, priority 2019, published 2023)
# What was measured:
# barnyard grass [1] = assay: Test Example 3: herbicidal effect by foliage application, Wagner pot (Table 18, symbol H); format: in vivo, barnyard grass (Echinochloa crus-galli); conditions: 320 g/ha
# Summary of the method: (§1)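 Plants were sown in alluvial soil held under 0.1–0.5 cm standing water and grown 14 days in a greenhouse at 25–30 °C. An emulsifiable formulation, water-diluted to the set dose, was then sprayed onto the foliage, and effects were scored three weeks later using previously defined criteria.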
# corn [2] = assay: Test Example 4: effect on crop by soil treatment (Table 19, symbol c); format: in vivo; conditions: 320 g/ha
# Summary of the method: (§2)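 Emulsion of test compound, water-diluted to predetermined amount, sprayed on soil after sowing (seed depth ~1.5 cm, sterilized diluvial soil). Greenhouse, 25–30° C. Effect graded at three weeks post-spray.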
# chickweed = assay: Test Example 4: herbicidal effect by soil treatment (Table 19, symbol P); format: in vivo, common chickweed (Stellaria media); conditions: 320 g/ha
# Summary of the method: as §2
# blackgrass [3] = assay: Test Example 4: herbicidal effect by soil treatment (Table 19, symbol J); format: in vivo, blackgrass (Alopecurus myosuroides); conditions: 320 g/ha
# Summary of the method: as §2
# wild oat [4] = assay: Test Example 5: herbicidal effect by foliage application, plastic box (Table 20, symbol I); format: in vivo, wild oat (Avena fatua); conditions: foliage application, 320 g/ha, 3 weeks after application
# Summary of the method: (§3)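 Post-emergence foliar test in sterilized diluvial soil. Compound applied as water-diluted emulsion at a predetermined rate to 14-day-old plants; evaluation at three weeks.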
# redroot pigweed = assay: Test Example 4: herbicidal effect by soil treatment (Table 19, symbol N); format: in vivo, redroot pigweed (Amaranthus retroflexus); conditions: 320 g/ha
# Summary of the method: as §2
# velvetleaf [5] = assay: Test Example 5: herbicidal effect by foliage application, plastic box (Table 20, symbol M); format: in vivo, velvetleaf (Abutilon theophrasti); conditions: foliage application, 320 g/ha, 3 weeks after application
# Summary of the method: as §3
# Italian ryegrass [6] = assay: Test Example 4: herbicidal effect by soil treatment (Table 19, symbol K); format: in vivo, Italian ryegrass (Lolium multiflorum); conditions: 320 g/ha
# Summary of the method: as §2
# rapeseed [7] = assay: Test Example 5: effect on crop by foliage application, plastic box (Table 20, symbol g); format: in vivo; conditions: 320 g/ha, 3 weeks after application
# Description: (§4) [Test Example 5] Herbicidal Effect Test by Foliage Application
# (§5) Sterilized diluvial soil was placed in a plastic box having a length of 21 cm, a width of 13 cm, and a depth of 7 cm. The seeds of each of southern crabgrass, green foxtail, barnyard grass, wild oat, blackgrass, Italian ryegrass, windgrass, velvetleaf, redroot pigweed, lambsquarters, chickweed, false cleavers, persian speedwell, corn, soybean, rice, wheat, beet, and rapeseed were sowed in a spot-like manner and covered with the soil having a thickness of about 1.5 cm. Thereafter, the plants were grown in a greenhouse at 25° C. to 30° C. After 14-day growth of the plants, the emulsion agent of the compound of the present invention prepared according to Formulation Example 2 was diluted with water so as to achieve a predetermined herbicide amount, and the diluted emulsion agent was uniformly applied to a foliage part with a small-sized spray. Three weeks after the herbicide application, the effect of the herbicide on each plant was evaluated according to the criteria of Test Example 1.
# soybean [8] = assay: Test Example 4: effect on crop by soil treatment (Table 19, symbol d); format: in vivo; conditions: 320 g/ha
# Description: (§6) [Test Example 4] Herbicidal Effect Test by Soil Treatment
# as §5, with “Subsequently,” for “Thereafter, the plants were grown in a greenhouse at 25° C. to 30° C. After 14-day growth of the plants,”, “the surface of the soil” for “a foliage part”, “spray. The plastic box was placed in a greenhouse at 25° C. to 30° C. for growth of the plants.” for “spray.”
# southern crabgrass [9] = assay: Test Example 4: herbicidal effect by soil treatment (Table 19, symbol F); format: in vivo, southern crabgrass (Digitaria ciliaris); conditions: 320 g/ha
# Summary of the method: as §2
# Italian ryegrass [10] = assay: Test Example 5: herbicidal effect by foliage application, plastic box (Table 20, symbol K); format: in vivo, Italian ryegrass (Lolium multiflorum); conditions: foliage application, 320 g/ha, 3 weeks after application
# Summary of the method: as §3
# windgrass [11] = assay: Test Example 5: herbicidal effect by foliage application, plastic box (Table 20, symbol L); format: in vivo, windgrass (Apera spica-venti); conditions: foliage application, 320 g/ha, 3 weeks after application
# Summary of the method: as §3
# lambsquarters [12] = assay: Test Example 4: herbicidal effect by soil treatment (Table 19, symbol O); format: in vivo, lambsquarters (Chenopodium album); conditions: 320 g/ha
# Summary of the method: as §2
# windgrass [13] = assay: Test Example 4: herbicidal effect by soil treatment (Table 19, symbol L); format: in vivo, windgrass (Apera spica-venti); conditions: 320 g/ha
# Summary of the method: as §2
# corn [14] = assay: Test Example 5: effect on crop by foliage application, plastic box (Table 20, symbol c); format: in vivo; conditions: 320 g/ha, 3 weeks after application
# Description: as §4, §5
# beet [15] = assay: Test Example 5: effect on crop by foliage application, plastic box (Table 20, symbol f); format: in vivo; conditions: 320 g/ha, 3 weeks after application
# Description: as §4, §5
# barnyard grass [16] = assay: Test Example 4: herbicidal effect by soil treatment (Table 19, symbol H); format: in vivo, barnyard grass (Echinochloa crus-galli); conditions: 320 g/ha
# Summary of the method: as §2
# soybean [17] = assay: Test Example 5: effect on crop by foliage application, plastic box (Table 20, symbol d); format: in vivo; conditions: 320 g/ha, 3 weeks after application
# Description: as §4, §5
# Chinese sprangletop = assay: Test Example 3: herbicidal effect by foliage application, Wagner pot (Table 18, symbol D); format: in vivo, chinese sprangletop (Leptochloa chinensis); conditions: 320 g/ha
# Summary of the method: as §1
# beet [18] = assay: Test Example 4: effect on crop by soil treatment (Table 19, symbol f); format: in vivo; conditions: 320 g/ha
# Description: as §6
# as §5, with “Subsequently,” for “Thereafter, the plants were grown in a greenhouse at 25° C. to 30° C. After 14-day growth of the plants,”, “the surface of the soil” for “a foliage part”, “spray. The plastic box was placed in a greenhouse at 25° C. to 30° C. for growth of the plants.” for “spray.”
# wheat [19] = assay: Test Example 5: effect on crop by foliage application, plastic box (Table 20, symbol e); format: in vivo; conditions: 320 g/ha, 3 weeks after application
# Description: as §4, §5
# lambsquarters [20] = assay: Test Example 5: herbicidal effect by foliage application, plastic box (Table 20, symbol O); format: in vivo, lambsquarters (Chenopodium album); conditions: foliage application, 320 g/ha, 3 weeks after application
# Summary of the method: as §3
# wheat [21] = assay: Test Example 4: effect on crop by soil treatment (Table 19, symbol e); format: in vivo; conditions: 320 g/ha
# Summary of the method: as §2
# wild oat [22] = assay: Test Example 4: herbicidal effect by soil treatment (Table 19, symbol I); format: in vivo, wild oat (Avena fatua); conditions: 320 g/ha
# Summary of the method: as §2
# green foxtail [23] = assay: Test Example 5: herbicidal effect by foliage application, plastic box (Table 20, symbol G); format: in vivo, green foxtail (Setaria viridis); conditions: foliage application, 320 g/ha, 3 weeks after application
# Summary of the method: as §3
# rice flat sedge = assay: Test Example 3: herbicidal effect by foliage application, Wagner pot (Table 18, symbol E); format: in vivo, rice flat sedge (Cyperus iria); conditions: 320 g/ha
# Summary of the method: as §1
# velvetleaf [24] = assay: Test Example 4: herbicidal effect by soil treatment (Table 19, symbol M); format: in vivo, velvetleaf (Abutilon theophrasti); conditions: 320 g/ha
# Summary of the method: as §2
# southern crabgrass [25] = assay: Test Example 5: herbicidal effect by foliage application, plastic box (Table 20, symbol F); format: in vivo, southern crabgrass (Digitaria ciliaris); conditions: foliage application, 320 g/ha, 3 weeks after application
# Summary of the method: as §3
# directly sowed rice = assay: Test Example 3: effect on crop by foliage application, Wagner pot (Table 18, symbol b); format: in vivo; conditions: 320 g/ha
# Protocol: [Test Example 3] Herbicidal Effect Test by Foliage Application After alluvial soil was placed into 1/10000 are of Wagner pot, water was poured and mixed to form a submerged condition having a water depth of 0.1 cm to 0.5 cm. Seeds of barnyard grass, Chinese sprangletop, rice flat sedge, and rice were sowed and the pot was placed in a greenhouse at 25° C. to 30° C. for growth of the plants. After 14-day growth of the plants, the emulsion agent of the compound of the present invention prepared according to Formulation Example 2 was diluted with water so as to achieve a predetermined herbicide amount, and the diluted emulsion agent was uniformly applied to a foliage part with a small-sized spray. Three weeks after the herbicide application, the effect of the herbicide on each plant was evaluated according to the criteria of Test Example 1.
# barnyard grass [26] = assay: Test Example 5: herbicidal effect by foliage application, plastic box (Table 20, symbol H); format: in vivo, barnyard grass (Echinochloa crus-galli); conditions: foliage application, 320 g/ha, 3 weeks after application
# Summary of the method: as §3
# rapeseed [27] = assay: Test Example 4: effect on crop by soil treatment (Table 19, symbol g); format: in vivo; conditions: 320 g/ha
# Summary of the method: as §2
# blackgrass [28] = assay: Test Example 5: herbicidal effect by foliage application, plastic box (Table 20, symbol J); format: in vivo, blackgrass (Alopecurus myosuroides); conditions: foliage application, 320 g/ha, 3 weeks after application
# Summary of the method: as §3
# persian speedwell [29] = assay: Test Example 4: herbicidal effect by soil treatment (Table 19, symbol R); format: in vivo, Persian speedwell (Veronica persica); conditions: 320 g/ha
# Summary of the method: as §2
# green foxtail [30] = assay: Test Example 4: herbicidal effect by soil treatment (Table 19, symbol G); format: in vivo, green foxtail (Setaria viridis); conditions: 320 g/ha
# Summary of the method: as §2
# persian speedwell [31] = assay: Test Example 5: herbicidal effect by foliage application, plastic box (Table 20, symbol R); format: in vivo, Persian speedwell (Veronica persica); conditions: foliage application, 320 g/ha, 3 weeks after application
# Summary of the method: as §3
compound,measurement,setting,value
"Cc1nn(C)c(=O)c(-c2c(-c3ccc(OC(F)F)cc3)sc3ccc(F)cc23)c1O [Compound No. 2-042, 4-(2-(4-(difluoromethoxy)phenyl)-5-fluorobenzo[b]thiophen-3-yl)-5-hydroxy-2,6-dimethylpyridazin-3(2H)-one]","herbicidal effect on H (barnyard grass), rating 0-5",barnyard grass [1],5 (Herbicidal rate of 90% or more (almost completely withered))
same,"effect rating on crop, c: corn",corn [2],0 (Herbicidal rate of 5% or less (almost no effect))
same,"herbicidal effect rating, P: chickweed",chickweed,4 (Herbicidal rate of 70% or more and less than 90%)
same,"herbicidal effect rating, J: blackgrass",blackgrass [3],3 (Herbicidal rate of 40% or more and less than 70%)
same,effect on wild oat (I),wild oat [4],3 (Herbicidal rate of 40% or more and less than 70%)
same,"herbicidal effect rating, N: redroot pigweed",redroot pigweed,5 (Herbicidal rate of 90% or more (almost completely withered))
same,effect on velvetleaf (M),velvetleaf [5],5 (Herbicidal rate of 90% or more (almost completely withered))
same,"herbicidal effect rating, K: Italian ryegrass",Italian ryegrass [6],5 (Herbicidal rate of 90% or more (almost completely withered))
same,effect on rapeseed (g),rapeseed [7],5 (Herbicidal rate of 90% or more (almost completely withered))
same,melting point,,164 to 165 °C
same,"effect rating on crop, d: soybean",soybean [8],0 (Herbicidal rate of 5% or less (almost no effect))
same,"herbicidal effect rating, F: southern crabgrass",southern crabgrass [9],3 (Herbicidal rate of 40% or more and less than 70%)
same,effect on Italian ryegrass (K),Italian ryegrass [10],5 (Herbicidal rate of 90% or more (almost completely withered))
same,effect on windgrass (L),windgrass [11],5 (Herbicidal rate of 90% or more (almost completely withered))
same,"herbicidal effect rating, O: lambsquarters",lambsquarters [12],5 (Herbicidal rate of 90% or more (almost completely withered))
same,"herbicidal effect rating, L: windgrass",windgrass [13],3 (Herbicidal rate of 40% or more and less than 70%)
same,effect on corn (c),corn [14],0 (Herbicidal rate of 5% or less (almost no effect))
same,effect on beet (f),beet [15],5 (Herbicidal rate of 90% or more (almost completely withered))
same,"herbicidal effect rating, H: barnyard grass",barnyard grass [16],4 (Herbicidal rate of 70% or more and less than 90%)
same,effect on soybean (d),soybean [17],3 (Herbicidal rate of 40% or more and less than 70%)
same,"herbicidal effect on D (Chinese sprangletop), rating 0-5",Chinese sprangletop,3 (Herbicidal rate of 40% or more and less than 70%)
same,"effect rating on crop, f: beet",beet [18],1 (Herbicidal rate of 5% or more and less than 20%)
same,effect on wheat (e),wheat [19],1 (Herbicidal rate of 5% or more and less than 20%)
same,effect on lambsquarters (O),lambsquarters [20],5 (Herbicidal rate of 90% or more (almost completely withered))
same,"effect rating on crop, e: wheat",wheat [21],0 (Herbicidal rate of 5% or less (almost no effect))
same,"herbicidal effect rating, I: wild oat",wild oat [22],0 (Herbicidal rate of 5% or less (almost no effect))
same,effect on green foxtail (G),green foxtail [23],5 (Herbicidal rate of 90% or more (almost completely withered))
same,"herbicidal effect on E (rice flat sedge), rating 0-5",rice flat sedge,5 (Herbicidal rate of 90% or more (almost completely withered))
same,"herbicidal effect rating, M: velvetleaf",velvetleaf [24],5 (Herbicidal rate of 90% or more (almost completely withered))
same,effect on southern crabgrass (F),southern crabgrass [25],4 (Herbicidal rate of 70% or more and less than 90%)
same,"effect on crop b (directly sowed rice), rating 0-5",directly sowed rice,1 (Herbicidal rate of 5% or more and less than 20%)
same,effect on barnyard grass (H),barnyard grass [26],5 (Herbicidal rate of 90% or more (almost completely withered))
same,"effect rating on crop, g: rapeseed",rapeseed [27],5 (Herbicidal rate of 90% or more (almost completely withered))
same,effect on blackgrass (J),blackgrass [28],5 (Herbicidal rate of 90% or more (almost completely withered))
same,"herbicidal effect rating, R: persian speedwell",persian speedwell [29],5 (Herbicidal rate of 90% or more (almost completely withered))
same,"herbicidal effect rating, G: green foxtail",green foxtail [30],5 (Herbicidal rate of 90% or more (almost completely withered))
same,effect on persian speedwell (R),persian speedwell [31],5 (Herbicidal rate of 90% or more (almost completely withered))
